Here are results for one compound from article PMC12746157, “Light-Regulated Agonists Spatiotemporally Activating the Vitamin D Receptor Mitigate Psoriasis-like Inflammation in Mice without Inducing Hypercalcemia” (ACS Central Science, 2025).

“Also recorded” adds a separate entry of the source.

A short description of data set [1]: Thermal relaxation and photoisomerization rates of PhotoVDRM in aqueous assay buffer. It is filed as physicochemical. Conditions: for photoisomerization rate (τ) trans to cis: 365 nm, aqueous buffer 0.6% DMSO. How it is done: The UV–vis absorbance spectra of all molecules were measured in the dark and after the application of light of different wavelengths ranging from 365 to 770 nm (Figure A and Figures S1–S3). […] Consequently, violet/UV light below 405 nm efficiently promoted photoisomerization, which produced a dramatic decrease in the π-π* band and a significant increase in the n-π* band at around 445 nm (Table ). […] The proportion of molecules at the PSS in trans isomer upon constant illumination with light at 525 nm and cis at 365 nm was in general above 50%, reaching a remarkable >99% for compound 11d (Table and Figures S4 and S5). […] The greater stability of the trans isomer was consistent with previous quantum mechanical and molecular mechanics predictions. Measuring the photoisomerization properties of compound PhotoVDRM allowed us to determine the photoisomerization quantum yields of the compound by solving a differential equation for photoisomerization. We used MATLAB to perform regression and arrive at the following photoisomerization quantum yields: ϕ365 nm (trans) = 0.0427, ϕ365 nm (cis) = 0.0501, ϕ470 nm (trans) = 0.1857, and ϕ470 nm (cis) = 0.2281 (Figure S9). […] A deeper photocharacterization of PhotoVDRM allowed us to measure the kinetics of photoconversion upon constant illumination with two wavelengths and three light intensities (Figure D and Figure S10). […] Indeed, with LED devices producing light at intensities as low as 0.05 mW/mm^2 we were able to transform trans to cis in around 15.5 s. This time was reduced to 6 and 2 s when the light intensity was increased to 0.15 and 0.75 mW/mm^2. […] Therefore, we proceeded to test the ability of the chemical library to activate the VDR under different light conditions.
2 Photochemical characterization of compound PhotoVDRM. (A) UV–vis absorption spectra of compound PhotoVDRM under different light conditions. (B) Half-lifetime estimation of compound PhotoVDRM, absorbance was measured at 365 nm. (C) Multiple cis/trans isomerization cycles (365/460 nm) show the stability of the compound over 6 cycles of light application. (D) Photoisomerization under constant illumination with light at 365 nm (violet shade) and 470 nm (blue shade). Light was applied with a CoolLED pe-4000 at 50% intensity that corresponded to 0.75 mW/mm^2 for the light at 365 nm and 0.56 mW/mm^2 for the light at 470 nm; 10% intensity corresponded to 0.15 mW/mm^2 for the light at 365 nm and 0.12 mW/mm^2 for the light at 470 nm; and 5% intensity corresponded to 0.06 mW/mm^2 for the light at 365 nm and 0.05 mW/mm^2 for the light at 470 nm. The photoisomerization rates (τ) using light at 365 nm were measured as 2, 6, and 15.5 s with 50%, 10% and 5% of intensity. […]

Data set [2] concerns IL-23-induced psoriatic-like inflammation. Nature of the data set: IL-23-induced mouse model of psoriasis (ear thickness). It is filed as in vivo, C57BL/6N mice. Conditions: days 2-4, i.p. PhotoVDRM 0.5 mg/kg.
Description: Each mice was administered interlueukin 23 (IL-23) once a day for a total of 3 days by intradermal injection (i.d.) into one of the mouse ears. Contralateral ear i.d. injected with PBS was used as control. Subsequently, ear thickness was measured daily, by using a digital caliper, as indicative of psoriasis-course progression (Figure A).
(A) Temporal scheme for IL-23-induced mouse model of psoriasis. Animals were treated with IL-23 (i.d.) in the left ear during three consecutive days (days 1, 2 and 3). In addition, a contralateral control was performed consisting of PBS administration in the right ear. At day 2, 3, and 4 animals were previously intraperitoneally (i.p.) administered with vehicle (saline) and drugs (i.e., LSN2148936; 0.005 mg/kg and PhotoVDRM; 0.5 mg/kg). Both ears were irradiated with 420 or 520 nm light at day 2, 3, and 4 during 8 min. […] (C) Inflammatory ear response measurements. Mice ear thickness determination in animals administrated (ip) on days 2, 3, and 4 with vehicle, LSN2148936 or PhotoVDRM treated with 420 or 520 nm light. Each day, ear thickness was measured in millimeters and represented as percentage of ear thickness increase using the first measurement of PBS-administrated ear as control. Data is shown as mean ± SD, n = 5 mice per group. Statistical analysis between PhotoVDRM and vehicle. *P < 0.05 and **P < 0.01 Student’s t test.

In the case of `Cc1cc(OCC(O)C(C)(C)C)ccc1N=Nc1cccc(-c2ccc(C(=O)O)cc2)c1` (stereo not drawn) [Compound 11b], the “photoisomerization rate (τ) trans to cis” value in data set [1] (10% intensity, 0.15 mW/mm^2, 25 °C) is recorded as 6 s; in data set [1] (50% intensity, 0.75 mW/mm^2, 25 °C), 2 s. For the same compound, in data set [1] (aqueous buffer used for pharmacological experiments (0.5% DMSO)), the thermal relaxation turned out to be 3 h. Besides, in data set [1] (buffer vs pure DMSO), the “thermal relaxation in aqueous buffer, times faster than in pure DMSO” value is approximately 7 times. For the same compound, the “IL-23-induced ear inflammation (ear thickness)” value in data set [2] (420 nm light 8 min) is given as “significant reduction; also recorded: full antipsoriatic activity”; in data set [2] (520 nm light 8 min), “only partially reduces”.
